Assay results published in patent US9624238B2, “4H-thieno[3,2-C]chromene-based inhibitors of Notum Pectinacetylesterase and methods of their use” (Lexicon Pharmaceuticals, Inc., priority 2011, dated 2017).

How the values were obtained:
[1] = biological target: T1, human notum pectinacetyltransferase (Homo sapiens, UniProt Q6P988); experiment: Binding assay (OPTS esterase substrate, fluorimetric); format: biochemical; settings: class symbols
T1 construct: made in house; unpurified conditioned medium used
T1 sequence (Q6P988 20-496): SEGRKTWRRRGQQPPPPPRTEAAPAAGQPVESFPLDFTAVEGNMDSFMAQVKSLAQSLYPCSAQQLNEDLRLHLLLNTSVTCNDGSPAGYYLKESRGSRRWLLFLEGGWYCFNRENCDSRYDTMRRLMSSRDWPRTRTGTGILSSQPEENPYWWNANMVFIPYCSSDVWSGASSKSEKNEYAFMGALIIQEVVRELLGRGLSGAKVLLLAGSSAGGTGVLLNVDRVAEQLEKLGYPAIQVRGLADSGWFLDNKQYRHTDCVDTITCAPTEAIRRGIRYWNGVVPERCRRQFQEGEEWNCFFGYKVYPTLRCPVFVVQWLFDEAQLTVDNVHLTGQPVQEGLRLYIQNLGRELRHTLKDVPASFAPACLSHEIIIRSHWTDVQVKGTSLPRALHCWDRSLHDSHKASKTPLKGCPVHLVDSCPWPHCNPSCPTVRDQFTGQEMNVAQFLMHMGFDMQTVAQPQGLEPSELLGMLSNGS
Description: Plasmid containing human notum pectinacetyltransferase in pcDNA3.1(+) vector was transfected into HEK (293 cells and clones were selecting by growing in presence of 400 ug/mL of G418. Condition media from these cells was used for the assay.

[2] = biological target: T1, human notum pectinacetyltransferase; experiment: Reporter assay (CellSensor LEF/TCF-bla FreeStyle 293F cells, Wnt3a and notum conditioned media); format: cell-based; settings: class symbols
Description: Plasmid containing human notum pectinacetyltransferase in pcDNA3.1(+) vector was transfected into HEK (293 cells and clones were selecting by growing in presence of 400 ug/mL of G418. The clone containing highest expression of human notum pectinacetyltransferase in the conditioned media was maintained for all future activity assays. L cells overexpressing and secreting Wnt3a into the conditioned media were purchased from ATCC.
The assay protocol was as follows. […] The cell growth medium consisted of DMEM with 10% Dialyzed FBS, 5 μg/ml Blasticidin (Invitrogen, R210-01), 0.1 mM NEAA, 25 mM HEPES and 1×GPS. Cells were then trypsinized by first rinsing with PBS, followed by addition of 5 mL of trypsin and incubation of plates at room temperature for two minutes. A total of 10 mL of assay media (Opti-MEM, plus 0.5% dialyzed FBS, 0.1 mM NEAA, 1 mM sodium pyruvate, 10 mM HEPES, 1×GPS) was then added per 15 cm plate. Cells were counted and suspended at 0.75 million cells per mL. […] After incubation of cells at 37° C. for 3 hours, 10 μL of 30 mM LiCl in assay medium was added per well, followed by incubation at 37° C. for another 3 hours. […] Ten μL of the Wnt3a/notum pentinacetyltransferase mixture was then transferred from Greiner plates to each well of the 384-well plates containing the CellSensor cells.

| IC50 [1] | EC50 [2] | Structure (SMILES) |
| --- | --- | --- |
| < 100 nM | < 50 nM | COc1ccc2c(c1Cl)CCc1cc(C(=O)N3CCC(C#N)C3)sc1-2 (centres unmarked) |
| < 100 nM | < 50 nM | N#CC1CCN(C(=O)c2cc3c(s2)-c2ccc(Cl)c(Cl)c2OC3)C1 (centres unmarked) |
| < 1000 nM | < 50 nM | NC(=O)c1cc2c(s1)-c1ccccc1S(=O)(=O)C2 |
| < 1000 nM | < 50 nM | O=C(O)c1cc2c(s1)-c1cccc(Cl)c1OC2 |
| < 1000 nM | < 50 nM | NC(=O)c1cc2c(s1)-c1cccc(Cl)c1CC2 |
| < 100 nM | < 50 nM | O=C(O)c1cc2c(s1)-c1cccc(Cl)c1CC2 |
| < 1000 nM | < 50 nM | O=C(O)c1cc2c(s1)-c1c(F)ccc(Cl)c1OC2 |
| < 1000 nM | < 50 nM | COc1cc(F)c2c(c1)-c1sc(C(=O)O)cc1CC2 |
| < 50 nM | < 50 nM | O=C(O)c1cc2c(s1)-c1cc(F)cc(F)c1OC2 |
| < 50 nM | < 50 nM | CC1Cc2cc(C(=O)O)sc2-c2cc(F)cc(F)c21 (centres unmarked) |
| < 100 nM | < 50 nM | O=C(O)c1cc2c(s1)-c1c(Cl)ccc(Cl)c1OC2 |
| < 2000 nM | < 50 nM | CNc1ccc2c(c1)CCc1cc(C(=O)O)sc1-2 |
| < 1000 nM | < 50 nM | CC1(C)Cc2cc(C(N)=O)sc2-c2ccc(Cl)cc21 |
| < 2000 nM | < 50 nM | O=C(O)c1cc2c(s1)-c1ccc(F)cc1OC2 |
| < 1000 nM | < 50 nM | Cc1c(F)ccc2c1OCc1cc(C(=O)O)sc1-2 |
| < 2000 nM | < 500 nM | O=C(O)c1cc2c(s1)-c1cc(F)c(F)cc1S(=O)(=O)C2 |
| < 100 nM | < 50 nM | O=C(O)c1cc2c(s1)-c1cc(F)c(F)cc1SC2 |
| < 50 nM | < 50 nM | CC1Cc2cc(C(N)=O)sc2-c2cc(F)c(F)cc21 (centres unmarked) |
| < 1000 nM | < 50 nM | Cc1cc(Cl)cc2c1OCc1cc(C(N)=O)sc1-2 |
| < 1000 nM | < 50 nM | Cc1cc(Cl)cc2c1OCc1cc(C(=O)O)sc1-2 |
| < 1000 nM | < 50 nM | O=C(O)c1cc2c(s1)-c1cc(Cl)c(C(F)(F)F)cc1OC2 |
| < 1000 nM | < 50 nM | O=C(O)c1cc2c(s1)-c1cc(F)ccc1S(=O)(=O)C2 |
| < 50 nM | < 50 nM | COc1ccc2c(c1Cl)CCc1cc(C(=O)N3CCC(F)C3)sc1-2 (centres unmarked) |
| < 100 nM | < 50 nM | O=C(c1cc2c(s1)-c1ccc(F)c(F)c1CC2)N1CCC(F)C1 (centres unmarked) |
| < 1000 nM | < 50 nM | O=C(c1cc2c(s1)-c1cc(Cl)cc(F)c1OC2)N1CCC(F)C1 (centres unmarked) |

The remaining lines, values behind:

| Structure (SMILES) | IC50 [1] | EC50 [2] |
| --- | --- | --- |
| N#CC1CCN(C(=O)c2cc3c(s2)-c2cccc(F)c2CC3)C1 (centres unmarked) | < 100 nM | < 50 nM |
| O=C1CCN(C(=O)c2cc3c(s2)-c2ccc(Cl)c(Cl)c2OC3)C1 | < 100 nM | < 50 nM |
| CC1Cc2ccccc2-c2sc(C(=O)O)cc21 (centres unmarked) | < 2000 nM | < 50 nM |
| COc1ccc2c(c1Br)CCc1cc(C(=O)O)sc1-2 | < 50 nM | < 50 nM |
| Cc1cc(Cl)c2c(c1)-c1sc(C(N)=O)cc1CC2 | < 50 nM | < 50 nM |
| NC(=O)c1cc2c(s1)-c1c(F)ccc(Cl)c1OC2 | < 50 nM | < 50 nM |
| Cc1ccc(Cl)c2c1-c1sc(C(N)=O)cc1CO2 | < 50 nM | < 50 nM |
| N#Cc1cccc2c1OCc1cc(C(N)=O)sc1-2 | < 1000 nM | < 50 nM |
| Cc1cccc2c1OCc1cc(C(=O)O)sc1-2 | < 2000 nM | < 50 nM |
| NC(=O)c1cc2c(s1)-c1ccc(F)c(F)c1CC2 | < 50 nM | < 50 nM |
| CC1Cc2cc(C(N)=O)sc2-c2cc(F)cc(F)c21 (centres unmarked) | < 50 nM | < 50 nM |
| NC(=O)c1cc2c(s1)-c1c(Cl)ccc(Cl)c1OC2 | < 50 nM | < 50 nM |
| O=C(O)c1cc2c(s1)-c1c(F)ccc(F)c1OC2 | < 100 nM | < 50 nM |
| CC1Cc2cc(C(N)=O)sc2-c2c(F)ccc(F)c21 (centres unmarked) | < 50 nM | < 50 nM |
| CC1Cc2cc(C(=O)O)sc2-c2c(F)ccc(F)c21 (centres unmarked) | < 50 nM | < 50 nM |
| Cc1ccc(C)c2c1OCc1cc(C(N)=O)sc1-2 | < 100 nM | < 50 nM |
| Cc1ccc(C)c2c1OCc1cc(C(=O)O)sc1-2 | < 2000 nM | < 50 nM |
| CN(C)c1ccc2c(c1)CCc1cc(C(=O)O)sc1-2 | < 2000 nM | < 500 nM |
| NC(=O)c1cc2c(s1)-c1ccc(Cl)cc1OC2 | < 100 nM | < 50 nM |
| O=C(O)c1cc2c(s1)-c1ccc(Cl)cc1OC2 | < 100 nM | < 50 nM |

| Structure (SMILES) | IC50 [1] | EC50 [2] |
| --- | --- | --- |
| CC1Cc2cc(C(N)=O)sc2-c2ccc(Cl)cc21 (centres unmarked) | < 100 nM | < 50 nM |
| CC1Cc2cc(C(=O)O)sc2-c2ccc(Cl)cc21 (centres unmarked) | < 1000 nM | < 50 nM |
| CC1(C)Cc2cc(C(=O)O)sc2-c2ccc(Cl)cc21 | < 2000 nM | < 50 nM |
| Cc1c(F)ccc2c1OCc1cc(C(N)=O)sc1-2 | < 50 nM | < 50 nM |
| CC1Cc2cc(C(=O)O)sc2-c2cc(F)c(F)cc21 (centres unmarked) | < 1000 nM | < 50 nM |
| CC1(C)Cc2cc(C(=O)O)sc2-c2cc(F)c(F)cc21 | < 2000 nM | < 50 nM |
| NC(=O)c1cc2c(s1)-c1c(cc(F)c(F)c1F)OC2 | < 50 nM | < 50 nM |
| NC(=O)c1cc2c(s1)-c1cc(Br)cc(Cl)c1OC2 | < 1000 nM | < 50 nM |
| O=C(O)c1cc2c(s1)-c1cc(Br)cc(Cl)c1OC2 | < 50 nM | < 50 nM |
| NC(=O)c1cc2c(s1)-c1cc(Cl)ccc1SC2 | < 1000 nM | < 50 nM |
| NC(=O)c1cc2c(s1)-c1cc(Cl)cc(F)c1OC2 | < 100 nM | < 50 nM |
| CC1Cc2cc(C(=O)O)sc2-c2cc(F)ccc21 (centres unmarked) | < 50 nM | < 50 nM |
| Cc1ccc2c(c1)-c1sc(C(=O)O)cc1CO2 | < 1000 nM | < 50 nM |
| Cc1ccc2c(c1)-c1sc(C(N)=O)cc1CS2 | < 2000 nM | < 50 nM |
| NC(=O)c1cc2c(s1)-c1c(F)cccc1OC2 | < 50 nM | < 50 nM |
| COc1ccc2c(c1Cl)CCc1cc(C(=O)N3CCC(OC)C3)sc1-2 (centres unmarked) | < 50 nM | < 50 nM |
| COC1CCN(C(=O)c2cc3c(s2)-c2cccc(F)c2CC3)C1 (centres unmarked) | < 50 nM | < 50 nM |
| O=C(c1cc2c(s1)-c1cccc(F)c1CC2)N1CCC(F)C1 (centres unmarked) | < 1000 nM | < 50 nM |
| O=C(c1cc2c(s1)-c1ccc(Cl)c(Cl)c1OC2)N1CCC(F)C1 (centres unmarked) | < 1000 nM | < 50 nM |
